{"source": "patent US9000044B2", "about": "“Substituted naphthylacetic acids” (Hoffmann-La Roche Inc., priority 2012, dated 2015)", "key": {"[1]": {"biological_target": "T1, human CRTH2 (Homo sapiens (Human), UniProt Q9Y5Y4)", "T1 sequence (Q9Y5Y4 whole entry)": "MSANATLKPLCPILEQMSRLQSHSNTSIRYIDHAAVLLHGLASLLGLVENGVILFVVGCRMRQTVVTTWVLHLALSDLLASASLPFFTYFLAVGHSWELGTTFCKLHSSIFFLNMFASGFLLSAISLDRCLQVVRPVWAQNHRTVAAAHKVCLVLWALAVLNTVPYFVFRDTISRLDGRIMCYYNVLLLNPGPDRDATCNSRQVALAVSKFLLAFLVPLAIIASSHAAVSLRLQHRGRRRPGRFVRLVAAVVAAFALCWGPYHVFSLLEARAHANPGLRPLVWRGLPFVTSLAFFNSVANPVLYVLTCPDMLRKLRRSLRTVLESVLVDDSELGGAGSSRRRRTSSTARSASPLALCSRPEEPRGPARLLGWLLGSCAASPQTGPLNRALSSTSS", "test": "Human CRTH2 Receptor Binding Assay (whole cell, [3H]ramatroban)", "conditions": "CHO-K1 cells expressing human CRTH2 and G-alpha16; 20 nM [3H]ramatroban; 1 hour, room temperature", "source_text": "Human CRTH2 Receptor Binding Assay\nA whole cell receptor binding assay using [^3H]ramatroban as the competing radioactive ligand was employed to evaluate the compound binding activity to human CRTH2. The radioactive ligand [^3H]ramatroban was synthesized according to Sugimoto et. al. (Eur. J. Pharmacol. 524, 30-37, 2005) to a specific activity of 42 Ci/mmol.\nA cell line stably expressing human CRTH2 was established by transfecting CHO-K1 cells with two mammalian expression vectors that harbored human CRTH2 and G-alpha16 cDNAs, respectively, using FuGene® 6 transfection reagent (from Roche). Stable clones expressing CRTH2 were selected by staining each clone with BM16 (BD Pharmingen™ from BD Biosciences, a division of Becton, Dickinson and Company), which is a rat monoclonal antibody to human CRTH2. The cells were maintained as monolayer cultures in Ham's F-12 medium containing 10% fetal bovine serum, 100 units/mL penicillin, 100 μg/mL streptomycin, 2 mM glutamine, 0.5 mg/mL G418 (geneticin) for CRTH2, and 0.2 mg/mL hygromycin-B (for G-alpha 16). For whole cell receptor binding assay, the monolayer cells were rinsed once with PBS (phosphate buffered saline), dissociated using ethylenediaminetetraacetate (Versene™ EDTA from Lonza Inc.), and suspended in PBS containing 10 mM MgCl2 and 0.06% BSA (bovine serum albumin) at 1.5×10^6 cells/mL.\nThe binding reactions (0.2 mL) were performed in 96-well plates at room temperature in PBS containing 1.5×10^5 cells, 10 mM MgCl2, 0.06% BSA, 20 nM [^3H]ramatroban, and test compound at various concentrations. After 1 hour of binding reactions, the cells were harvested on GF™/B filter microplates (microtiter plates with embedded glass fiber from PerkinElmer, Inc.) and washed 5 times with PBS using a Filtermate™ Harvester (a cell harvester that harvests and washes cells from microplates from PerkinElmer, Inc.). The radioactivities bound to the cells were determined using a microplate scintillation counter (TopCount® NXT, from PerkinElmer, Inc.) after adding 50 μL of Microscint™ 20 scintillation fluid (from PerkinElmer, Inc.) to each well of the filter plates. The radioactivity from non-specific binding was determined by replacing compound with 10 μM of 15(R)-15-methyl PGD2 (from Cayman Chemical Company) in the reaction mixtures. The radioactivity bound to the cells in the absence of compound (total binding) was determined by replacing compound with 0.25% of DMSO (dimethyl sulfoxide) in the reaction mixture. Specific binding data were obtained by subtracting the radioactivity of non-specific binding from each binding data.\nThe IC50 value is defined as the concentration of the tested compound that is required for 50% inhibition of total specific binding. In order to calculate the IC50 value, the percent inhibition data were determined for 7 concentrations for each compound. The percent inhibition for a compound at each concentration was calculated according to the following formula, [1-(specific binding in the presence of compound)/(total specific binding)]×100. The IC50 value was then obtained by fitting the percent inhibition data to a sigmoidal dose-response (4 parameter logistic) model in the XLfit® software Excel add-in program [from ID Business Solutions Ltd., model 205, where F(x)=(A+(B−A)/(1+((C/x)^D)))]."}, "[2]": {"biological_target": "T1, human CRTH2", "test": "Calcium Flux Assay Using Fluorometric Imaging Plate Reader (FLIPR)", "assay_type": "cell-based", "conditions": "CHO-K1 cells with G-alpha 16 and human CRTH2; inhibition of DK-PGD2 ligand-induced Ca2+ flux", "procedure": "Calcium Flux Assay Using Fluorometric Imaging Plate Reader (FLIPR)\nCell Culture Conditions: CHO-K1 cells previously transfected with G-alpha 16 were subsequently transfected with the human CRTH2 receptor and the neomycin resistance gene. Following selection in 800 μg/mL G418 (geneticin), individual clones were assayed for their receptor expression based on staining with an anti human CRTH2 IgG, followed by assaying for their response to 13,14-dihydro-15-keto Prostaglandin D2 (DK-PDG2) (ligand) in the Ca^2+ Flux assay. Positive clones were then cloned by limiting dilution cloning. The transfected cells were cultured in Ham's F-12 medium supplemented with 10% fetal bovine serum, 2 mM glutamine, 100 U/mL penicillin/100 μg/mL streptomycin, 200 μg/mL hygromycin B, and 800 μg/mL G418 (geneticin). Cells were harvested with trypsin-EDTA (trypsin-ethylenediaminetetraacetic acid) and counted using ViaCount® reagent (from Guava Technologies, Inc. which contains two DNA-binding dyes that enable the reagent user to distinguish between viable and non-viable cells). The cell suspension volume was adjusted to 2.5×10^5 cells/mL with complete growth media. Aliquots of 50 μL were dispensed into BD Falcon™ 384 well black/clear microplates (from BD Biosciences, a division of Becton, Dickinson and Company) and the microplates were placed in a 37° C. CO2 incubator overnight. The following day, the microplates were used in the assay.\nLoading Buffer containing dye (from the FLIPR® Calcium 3 Assay Kit from Molecular Devices, a division of MDS Analytical Technologies and MDS Inc.) was prepared by dissolving the contents of one bottle into 200 mL Hank's Balanced Salt Solution containing 20 mM HEPES (4-(2-hydroxyethyl)-1-piperazineethanesulfonic acid) and 2.5 mM probenecid. Growth media was removed from the cell plates and 25 μL of Hank's Balanced Salt Solution (HBSS) containing 20 mM HEPES, 0.05% BSA and 2.5 mM probenecid was added to each well followed by 25 μL of diluted dye using a Multidrop dispenser. The plates were then incubated for 1 hour at 37° C.\nDuring the incubation, test compound plates were prepared by adding 90 μL of HBSS/20 mM HEPES/0.005% BSA buffer to the 2 μL of serial diluted compounds. To prepare serial diluted compounds, 20 mM stocks of compounds were dissolved in 100% DMSO. The compound dilution plate was set up as follows: well #1 received 5 μL of compound plus 10 μL of DMSO. Wells 2-10 received 10 μL of DMSO. 5 μL was mixed and transferred from well #1 into well #2. 1:3 serial dilutions were continued out 10 steps. 2 μL of diluted compound was transferred into duplicate wells of a 384 well “assay plate” and then 90 μL of buffer was added.\nAfter incubation, both the cell and “assay plate” plates were brought to the fluorometric imaging plate reader (FLIPR®) and 20 μL of the diluted compounds were transferred to the cell plates by the FLIPR®. Plates were then incubated for 1 hour at room temperature. […] During the assay, fluorescence readings were taken simultaneously from all 384 wells of the cell plate every 1.5 seconds. Five readings were taken to establish a stable baseline, then 20 μL of sample was rapidly (30 μL/sec) and simultaneously added to each well of the cell plate. The fluorescence was continuously monitored before, during and after sample addition for a total elapsed time of 100 seconds. Responses (increase in peak fluorescence) in each well following agonist addition were determined. The initial fluorescence reading from each well, prior to ligand stimulation, was used as a zero baseline value for the data from that well. The responses were expressed as % inhibition of the buffer control."}, "[3]": {"tested_on": "Th2 cells", "test": "DK-PGD2-Induced IL-13 Production Assay in Th2 Cells", "assay_type": "cell-based", "conditions": "human Th2 cells; 500 nM DK-PGD2; 4 hrs at 37° C.; IL-13 by ELISA", "procedure": "DK-PGD2-Induced IL-13 Production Assay in Th2 Cells\nCultures of Th2 cells were established from blood of healthy human volunteers according to the following procedure. Peripheral blood mononuclear cells (PBMC) were first isolated from 50 mL of fresh blood by Ficoll-Hypaque density gradient centrifugation, followed by CD4^+ cell purification using a CD4^+ T Cell Isolation Kit II (from Miltenyi Biotec Inc.). The CD4^+ T cells were then differentiated to Th2 cells by culturing the cells in X-VIVO 15® medium (from Cambrex BioScience Walkersville Inc.) containing 10% human AB serum (serum of blood type AB from Invitrogen Corporation), 50 U/mL of recombinant human interleukin-2 (rhIL-2) (from PeproTech Inc.) and 100 ng/mL of recombinant human interleukin-4 (rhIL-4) (from PeproTech Inc.) for 7 days. […] In general, 70% to 80% of the Th2 cells used in the assay are CRTH2-positive when analyzed by fluorescence-activated cell sorting using the BM16 antibody (as previously described) conjugated to Alexa Fluor 647.\nThe spontaneous production of IL-13 by Th2 cells was determined in the absence of DK-PGD2 stimulation and the value was subtracted from that in the presence of each compound for percent inhibition and IC50 calculations. […]"}}}
{"smiles": "Cc1ccccc1S(=O)(=O)c1ccc(-c2c(C)c(CC(=O)O)cc3ccc(F)cc23)cc1", "note": "[Example 1, {6-Fluoro-3-methyl-4-[4-(toluene-2-sulfonyl)-phenyl]-naphthalen-2-yl}-acetic acid]", "values": [{"measurement": "IC50", "setting": "[1]", "result": 2.9, "unit": "nM"}, {"measurement": "IC50", "setting": "[2]", "result": 0.3, "unit": "nM"}]}
{"smiles": "Cc1c(CC(=O)O)cc2ccc(Cl)cc2c1-c1ccc(S(=O)(=O)N2CCCC2)cc1", "note": "[Example 33, {6-Chloro-3-methyl-4-[4-(pyrrolidine-1-sulfonyl)-phenyl]-naphthalen-2-yl}-acetic acid]", "values": [{"measurement": "IC50", "setting": "[3]", "result": 8, "unit": "nM"}, {"measurement": "IC50", "setting": "[2]", "result": 0.8, "unit": "nM"}]}
{"smiles": "Cc1c(CC(=O)O)cc2ccc(F)cc2c1-c1ccc(S(C)(=O)=O)cc1", "note": "[Example 54, [6-Fluoro-4-(4-methansulfonyl-phenyl)-3-methyl-naphthalen-2-yl]-acetic acid]", "values": [{"measurement": "IC50", "setting": "[1]", "result": 40, "unit": "nM"}, {"measurement": "IC50", "setting": "[2]", "result": 25, "unit": "nM"}]}
{"smiles": "Cc1c(CC(=O)O)cc2ccc(Cl)cc2c1-c1ccc(S(=O)(=O)N2CCOCC2)cc1", "note": "[Example 55, {6-Chloro-3-methyl-4-[4-(morpholino-4-sulfonyl)-phenyl]-naphthalen-2-yl}-acetic acid]", "values": [{"measurement": "IC50", "setting": "[1]", "result": 2.4, "unit": "nM"}]}
{"smiles": "Cc1c(CC(=O)O)cc2ccc(F)cc2c1-c1ccc(S(C)(=O)=O)cn1", "note": "[Example 58, [6-Fluoro-4-(5-methanesulfonyl-pyridin-2-yl)-3-methyl-naphthalen-2-yl]-acetic acid]", "values": [{"measurement": "IC50", "setting": "[1]", "result": 139, "unit": "nM"}, {"measurement": "IC50", "setting": "[2]", "result": 1120, "unit": "nM"}]}
{"smiles": "Cc1c(CC(=O)O)cc2ccc(F)cc2c1-c1ccc(NS(=O)(=O)c2ccccc2)cc1", "note": "[Example 59, [4-(4-Benzenesulfonylamino-phenyl)-6-fluoro-3-methyl-naphthalen-2-yl]-acetic acid]", "values": [{"measurement": "IC50", "setting": "[1]", "result": 3.2, "unit": "nM"}]}
{"smiles": "Cc1c(CC(=O)O)cc2ccc(F)cc2c1-c1ccc(NS(=O)(=O)c2cc(C(F)(F)F)cc(C(F)(F)F)c2)cc1", "note": "[Example 60, {4-[4-(3,5-Bis-trifluoromethyl-benzenesulfonylamino)-phenyl]-6-fluoro-3-methyl-naphthalen-2-yl}-acetic acid]", "values": [{"measurement": "IC50", "setting": "[1]", "result": 5.6, "unit": "nM"}, {"measurement": "IC50", "setting": "[2]", "result": 0.1, "unit": "nM"}]}
{"smiles": "Cc1c(CC(=O)O)cc2ccc(Cl)cc2c1-c1ccc(NS(=O)(=O)c2ccccc2)cc1", "note": "[Example 61, [4-(4-Benzenesulfonylamino-phenyl)-6-chloro-3-methyl-naphthalen-2-yl]-acetic acid]", "values": [{"measurement": "IC50", "setting": "[1]", "result": 3.7, "unit": "nM"}]}
{"smiles": "Cc1c(CC(=O)O)cc2ccc(Cl)cc2c1-c1ccc(NS(=O)(=O)c2ccccc2C(F)(F)F)cc1", "note": "[Example 62, {6-Chloro-3-methyl-4-[4-(2-trifluoromethyl-benzenesulfonylamino)-phenyl]-naphthalen-2-yl}-acetic acid]", "values": [{"measurement": "IC50", "setting": "[1]", "result": 8.9, "unit": "nM"}]}
{"smiles": "Cc1ccccc1S(=O)(=O)Nc1ccc(-c2c(C)c(CC(=O)O)cc3ccc(Cl)cc23)cc1", "note": "[Example 63, {6-Chloro-3-methyl-4-[4-(toluene-2-sulfonylamino)-phenyl]-naphthalen-2-yl}-acetic acid]", "values": [{"measurement": "IC50", "setting": "[1]", "result": 8.3, "unit": "nM"}]}
{"smiles": "CC(=O)Nc1ccc(-c2c(C)c(CC(=O)O)cc3ccc(Cl)cc23)cc1", "note": "[Example 64, [4-(4-Acetylamino-phenyl)-6-chloro-3-methyl-naphthalen-2-yl]-acetic acid]", "values": [{"measurement": "IC50", "setting": "[1]", "result": 29.2, "unit": "nM"}]}
{"smiles": "Cc1c(CC(=O)O)cc2ccc(Cl)cc2c1-c1ccc(NC(=O)c2ccccc2)cc1", "note": "[Example 65, [4-(4-Benzoylamino-phenyl)-6-chloro-3-methyl-naphthalen-2-yl]-acetic acid]", "values": [{"measurement": "IC50", "setting": "[1]", "result": 6.2, "unit": "nM"}]}
{"smiles": "Cc1c(CC(=O)O)cc2ccc(Cl)cc2c1-c1ccc(NC(=O)Nc2ccccc2)cc1", "note": "[Example 66, {6-Chloro-3-methyl-4-[4-(3-phenyl-ureido)-phenyl]-naphthalen-2-yl}-acetic acid]", "values": [{"measurement": "IC50", "setting": "[1]", "result": 19, "unit": "nM"}]}
